Assay results from patent US20170231957A1, “INJECTABLE FORMULATIONS OF ASENAPINE” (ALRISE Biosystems GmbH, priority 2014, published 2017).
Counter-ions that a name gives are not always drawn. Like-named read-outs stand apart in the source and are kept apart here.

Legend:
[1] = Solubility of asenapine maleate in a variety of solvents; type: physicochemical; details: organic solvent or mixture, read-out: solubility of asenapine maleate, Concentration
Method: The asenapine or a pharmaceutically acceptable salt thereof is dissolved in the organic phase or dispersed as a solid in the organic phase. In order to effectively dissolve the asenapine or a pharmaceutically acceptable salt thereof in the organic phase, a solution of the active principle in a solvent S2 can be provided, and this solution can be combined with the solution of the polymer in the organic solvent S1. It will be understood that, in this case, the solvents S1 and S2 should be different solvents. It is also possible to add the active principle to the solvent S2 in an amount that only a part of it is dissolved in S2, and a part of it remains dispersed as a solid in the solvent S2. Using the process described herein, the active principle can also be encapsulated/embedded in the polymer at a high efficiency in this case. […] Nevertheless, the following table summarizes the solubility of asenapine maleate in a variety of solvents.

[2] = 20° C.; cited from earlier work
[3] = cited from earlier work
muscarinic receptors = details: cited from earlier work
serotonin receptors = details: rank among receptor classes; cited from earlier work

Compound: CN1CC2c3ccccc3Oc3ccc(Cl)cc3C2C1 (stereo not shown) [asenapine maleate]
- solubility ([1]; DMSO): 700 mg/mL
- solubility ([1]; THF): 100 mg/mL
- solubility ([1]; solvent EMK): 50 mg/mL
- solubility ([1]; solvent NMP): 700 mg/mL
- solubility ([1]; solvent acetone): 67 mg/mL
- solubility ([1]; solvent benzyl alcohol): 500 mg/mL
- solubility ([1]; solvent benzyl benzoate): 7 mg/mL
- solubility ([1]; solvent dimethycarbonate): 7 mg/mL
- solubility ([1]; solvent dimethylacetamide): 500 mg/mL
- solubility ([1]; solvent ethanol): 100 mg/mL
- solubility ([1]; solvent ethyl acetate): 10 mg/mL
- solubility ([1]; solvent ethyl benzoate): 10 mg/mL
- solubility ([1]; solvent ethyl formate): 100 mg/mL
- solubility ([1]; solvent glycofurol): 270 mg/mL
- solubility ([1]; solvent isopropanol): 7 mg/mL
- solubility ([1]; solvent isopropyl acetate): 9 mg/mL
- solubility ([1]; solvent isopropyl formate): 100 mg/mL
- solubility ([1]; solvent methyl acetate): 25 mg/mL
- solubility ([1]; solvent methyl benzoate): 20 mg/mL

Compound: CC(C)=O [acetone]
- solubility in water [2]: soluble

Compound: CN1CC2c3ccccc3Oc3ccc(Cl)cc3C2C1 (stereo not drawn) [asenapine, trans-5-chloro-2,3,3a,12b-tetrahydro-2-methyl-1-H-dibenz[2,3:6,7]oxepino[4,5-c]pyrrole]
- bioavailability ([3]; oral formulations): 2%
- bioavailability ([3]; sublingual tablets): 35%
- affinity for muscarinic receptors (muscarinic receptors): minimal affinity
- affinity for blocking serotonin receptors (serotonin receptors): highest affinity

Compound: glycofurol
- solubility in water [2]: soluble
